Source: patent US12371454B2, “Cyclic peptide compound having Kras inhibitory action” (priority 2019, dated 2025)
Starred links: 1 amine or outer side, 2 acyl side, 3 side chain; linkers in the order of their positions; H or OH if unused. Positions of bridges follow the written chain, without caps; N, C: chain ends. Non-standard residues stand in square brackets, D forms with d. Residues, ends and D or L forms follow the SMILES beside them. *: point of attachment. hPhe(3,5-F2-4-CF3) = N[C@@H](CCc1cc(F)c(C(F)(F)F)c(F)c1)C(=O)O; hPhe(3-Cl-4-CF3) = N[C@@H](CCc1ccc(C(F)(F)F)c(Cl)c1)C(=O)O; hPhe(3-F,4-CF3) = N[C@@H](CCc1ccc(C(F)(F)F)c(F)c1)C(=O)O; NMeAbu(4,4,4-F3) = CN[C@@H](CC(F)(F)F)C(=O)O; NMePhe(4-Cl) = CN[C@@H](Cc1ccc(Cl)cc1)C(=O)O; NMePhe(4-Me) = CN[C@@H](Cc1ccc(C)cc1)C(=O)O; X31 = O=C([C@H](Cc1ccc(Cl)s1)N[*:1])[*:2]; NMeGly(cPent) = CN[C@H](C(=O)O)C1CCCC1; Phe(3-I) = N[C@@H](Cc1cccc(I)c1)C(=O)O; Pro(4,4-F2) = O=C(O)[C@@H]1CC(F)(F)CN1; NMeCha = CN[C@@H](CC1CCCCC1)C(=O)O; NEtLeu = CCN[C@@H](CC(C)C)C(=O)O; NMeChg = CN[C@H](C(=O)O)C1CCCCC1; NMeF = CN[C@@H](Cc1ccccc1)C(=O)O; NMeD = CN[C@@H](CC(=O)O)C(=O)O; NMeL = CN[C@@H](CC(C)C)C(=O)O; NMeV = CN[C@H](C(=O)O)C(C)C; d(β3hA) = C[C@@H](N)CC(=O)O; NMeA = CN[C@@H](C)C(=O)O; NMeAib = CNC(C)(C)C(=O)O; Nle = CCCC[C@H](N)C(=O)O; Piperidide = C1CCN(*)CC1; Pra = C#CC[C@H](N)C(=O)O; Pyrrolidide = C1CCN(*)C1; Ac5c = NC1(C(=O)O)CCCC1; Aze = O=C(O)[C@@H]1CCN1; Sar = CNCC(=O)O

target: T1, Kras and SOS1 (biotin-tagged human Kras loaded with GDP, His-tagged human SOS1) (Homo sapiens, UniProt P01116, G12D); assay: Protein-protein interaction inhibition between Kras and SOS1 (KrasGl2D-SOS PPI) using AlphaScreen; assay type: binding; conditions: AlphaScreen; biotin-tagged human Kras loaded with GDP, His-tagged human SOS1; read-out: KRAS G12D-SOS PPI IC50
T1 construct: made in house; host or cells: E. coli (stated for Kras only)
T1 sequence (P01116 1-188 isoform P01116-2 G12D): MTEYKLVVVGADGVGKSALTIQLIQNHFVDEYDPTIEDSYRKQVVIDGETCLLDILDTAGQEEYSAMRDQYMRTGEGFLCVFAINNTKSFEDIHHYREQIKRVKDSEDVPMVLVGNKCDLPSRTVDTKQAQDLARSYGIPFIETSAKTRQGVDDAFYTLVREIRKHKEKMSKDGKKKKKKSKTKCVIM
Procedure, shortened: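 Energy transfer from nickel-chelate donor beads bound to His-SOS1 to streptavidin acceptor beads bound to biotin-Kras, expressed in E. coli and loaded with GDP after purification, was monitored. Donors were excited at 680 nm; singlet oxygen reaching acceptors gave emission read at 520-620 nm.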

First: CC[C@H](C)[C@@H]1NC(=O)[C@H](CC(C)C)N(C)C(=O)C[C@@H](C)NC(=O)[C@H](C2CCCC2)N(C)C(=O)C2(CCCC2)NC(=O)[C@H](C)NC(=O)[C@H](CCc2ccc(C(F)(F)F)c(Cl)c2)NC(=O)CN(C)C(=O)[C@H](Cc2ccc(C)cc2)N(C)C(=O)[C@@H]2CCN2C(=O)[C@H](C)N(C)C1=O [Compound 1307] (cyclo(A[Ac5c][NMeGly(cPent)][d(β3hA)][NMeL]I[NMeA][Aze][NMePhe(4-Me)][Sar][hPhe(3-Cl-4-CF3)]))
Second: CC[C@H](C)[C@@H]1NC(=O)[C@H](CC(C)C)N(C)C(=O)C[C@@H](C(=O)N2CCCCC2)N(C)C(=O)[C@H](C(C)C)N(C)C(=O)C2(CCCC2)NC(=O)[C@@H](C)NC(=O)[C@H](CCc2ccc(C(F)(F)F)c(Cl)c2)NC(=O)CN(C)C(=O)[C@H](CC2CCCCC2)N(C)C(=O)[C@@H]2CCN2C(=O)[C@H](C)N(C)C1=O [Compound 1314] ([NMeL]I[NMeA][Aze][NMeCha][Sar][hPhe(3-Cl-4-CF3)][dA][Ac5c][NMeV][NMeD]-Piperidide; lactam N-11)
The IC50 of the first is 33-fold lower: 2.7 nM for the first, 90 nM for the second. The first is the more potent here.

`C#CC[C@@H]1NC(=O)[C@H](Cc2cccc(I)c2)NC(=O)CN(C)C(=O)[C@H](Cc2ccccc2)N(C)C(=O)[C@@H]2CCN2C(=O)[C@H](C)N(C)C(=O)[C@H]([C@@H](C)CC)NC(=O)[C@H](CC(C)C)N(C)C(=O)C[C@@H](C(=O)N2CCCCC2)N(C)C(=O)[C@H](CC(C)C)NC(=O)C(C)(C)N(C)C1=O` [Compound 1313] ([NMeL]I[NMeA][Aze][NMeF][Sar][Phe(3-I)][Pra][NMeAib]L[NMeD]-Piperidide; lactam N-11) and `CCCC[C@@H]1NC(=O)[C@H](Cc2ccc(Cl)s2)NC(=O)CN(C)C(=O)[C@H](Cc2ccc(Cl)cc2)N(C)C(=O)CN(C)C(=O)CN(C)C(=O)[C@H]([C@@H](C)CC)NC(=O)[C@H](CC(C)C)N(C)C(=O)C[C@@H](C(=O)N2CCCCC2)N(C)C(=O)[C@H](CC(C)C)NC(=O)C(C)(C)N(C)C1=O` [Compound 1318] ([NMeL]I[Sar][Sar][NMePhe(4-Cl)][Sar][X31][Nle][NMeAib]L[NMeD]-Piperidide; lactam N-11) are within 1.5-fold of each other in IC50: 65 nM for the first, 78 nM for the second.

Compared with `CC[C@H](C)[C@@H]1NC(=O)[C@H](CC(C)C)N(C)C(=O)C[C@@H](C(=O)N2CCCCC2)N(C)C(=O)[C@H](C(C)C)N(C)C(=O)C2(CCCC2)NC(=O)[C@H](C)NC(=O)[C@H](CCc2ccc(C(F)(F)F)c(Cl)c2)NC(=O)CN(C)C(=O)[C@H](CC2CCCCC2)N(C)C(=O)[C@@H]2CCN2C(=O)[C@H](C)N(C)C1=O` [Compound 1316] ([NMeL]I[NMeA][Aze][NMeCha][Sar][hPhe(3-Cl-4-CF3)]A[Ac5c][NMeV][NMeD]-Piperidide; lactam N-11), `CC[C@H](C)[C@@H]1NC(=O)[C@H](CC(C)C)N(CC)C(=O)C[C@@H](C(=O)N(C)C)N(C)C(=O)[C@H](C2CCCC2)N(C)C(=O)C2(CCCC2)NC(=O)[C@@H]2CCCN2C(=O)[C@H](CCc2ccc(C(F)(F)F)c(F)c2)NC(=O)CN(C)C(=O)[C@H](CC2CCCCC2)N(C)C(=O)[C@@H]2CCN2C(=O)[C@H](C)N(C)C1=O` [Compound 1324] ([NEtLeu]I[NMeA][Aze][NMeCha][Sar][hPhe(3-F,4-CF3)]P[Ac5c][NMeGly(cPent)][NMeD]-NMe2; lactam N-11) is 2.7-fold lower in IC50: 3.2 nM for the first, 1.2 nM for the second.

`CC[C@H](C)[C@@H]1NC(=O)[C@H](CC(F)(F)F)N(C)C(=O)C[C@@H](C(=O)N2CCCC2)N(C)C(=O)[C@H](C2CCCCC2)N(C)C(=O)C2(CCCC2)NC(=O)[C@@H]2CC(F)(F)CN2C(=O)[C@H](CCc2cc(F)c(C(F)(F)F)c(F)c2)NC(=O)CN(C)C(=O)[C@H](Cc2ccc(C)cc2)N(C)C(=O)CN(C)C(=O)CN(C)C1=O` [Compound 1317] ([NMeAbu(4,4,4-F3)]I[Sar][Sar][NMePhe(4-Me)][Sar][hPhe(3,5-F2-4-CF3)][Pro(4,4-F2)][Ac5c][NMeChg][NMeD]-Pyrrolidide; lactam N-11) was tested, and the IC50 was 0.57 nM.
